# Laboratory results taken from ChEMBL document CHEMBL4665642, “Anticancer profile of newly synthesized BRAF inhibitors possess 5-(pyrimidin-4-yl)imidazo[2,1-b]thiazole scaffold” (Bioorg Med Chem, 2019).
# Experiments:
# Format in all cases: functional
# Conditions in all cases: read-out: Activity
# [1] = system: MDA-MB-468; assay: Cytotoxicity against human MDA-MB-468 cells assessed as cell viability at 10 uM incubated for 48 hrs by sulforhodamine B assay relative to control
# [2] = system: T47D; assay: Cytotoxicity against human T47D cells assessed as cell viability at 10 uM incubated for 48 hrs by sulforhodamine B assay relative to control
# [3] = system: MDA-MB-231; assay: Cytotoxicity against human MDA-MB-231 cells assessed as cell viability at 10 uM incubated for 48 hrs by sulforhodamine B assay relative to control
# [4] = system: MCF7; assay: Cytotoxicity against human MCF7 cells assessed as cell viability at 10 uM incubated for 48 hrs by sulforhodamine B assay relative to control
# [5] = system: DU-145; assay: Cytotoxicity against human DU-145 cells assessed as cell viability at 10 uM incubated for 48 hrs by sulforhodamine B assay relative to control
# [6] = system: UO-31; assay: Cytotoxicity against human UO-31 cells assessed as cell viability at 10 uM incubated for 48 hrs by sulforhodamine B assay relative to control
# [7] = system: SN12C; assay: Cytotoxicity against human SN12C cells assessed as cell viability at 10 uM incubated for 48 hrs by sulforhodamine B assay relative to control
# [8] = system: CAKI-1; assay: Cytotoxicity against human CAKI-1 cells assessed as cell viability at 10 uM incubated for 48 hrs by sulforhodamine B assay relative to control
# [9] = system: ACHN; assay: Cytotoxicity against human ACHN cells assessed as cell viability at 10 uM incubated for 48 hrs by sulforhodamine B assay relative to control
# [10] = system: SK-OV-3; assay: Cytotoxicity against human SK-OV-3 cells assessed as cell viability at 10 uM incubated for 48 hrs by sulforhodamine B assay relative to control
# [11] = system: IGROV-1; assay: Cytotoxicity against human IGROV-1 cells assessed as cell viability at 10 uM incubated for 48 hrs by sulforhodamine B assay relative to control
# [12] = system: UACC-62; assay: Cytotoxicity against human UACC-62 cells assessed as cell viability at 10 uM incubated for 48 hrs by sulforhodamine B assay relative to control
# [13] = system: UACC-257; assay: Cytotoxicity against human UACC-257 cells assessed as cell viability at 10 uM incubated for 48 hrs by sulforhodamine B assay relative to control
# [14] = system: SK-MEL-5; assay: Cytotoxicity against human SK-MEL-5 cells assessed as cell viability at 10 uM incubated for 48 hrs by sulforhodamine B assay relative to control
# [15] = system: SK-MEL-28; assay: Cytotoxicity against human SK-MEL-28 cells assessed as cell viability at 10 uM incubated for 48 hrs by sulforhodamine B assay relative to control
# [16] = system: SK-MEL-2; assay: Cytotoxicity against human SK-MEL-2 cells assessed as cell viability at 10 uM incubated for 48 hrs by sulforhodamine B assay relative to control
# [17] = system: CCRF-CEM; assay: Cytotoxicity against human CCRF-CEM cells assessed as cell viability at 10 uM incubated for 48 hrs by sulforhodamine B assay relative to control
# [18] = system: K562; assay: Cytotoxicity against human K562 cells assessed as cell viability at 10 uM incubated for 48 hrs by sulforhodamine B assay relative to control
# [19] = system: MOLT-4; assay: Cytotoxicity against human MOLT-4 cells assessed as cell viability at 10 uM incubated for 48 hrs by sulforhodamine B assay relative to control
# [20] = system: RPMI-8226; assay: Cytotoxicity against human RPMI-8226 cells assessed as cell viability at 10 uM incubated for 48 hrs by sulforhodamine B assay relative to control
# [21] = system: SR; assay: Cytotoxicity against human SR cells assessed as cell viability at 10 uM incubated for 48 hrs by sulforhodamine B assay relative to control
# [22] = system: A549; assay: Cytotoxicity against human A549 cells assessed as cell viability at 10 uM incubated for 48 hrs by sulforhodamine B assay relative to control
# [23] = system: EKVX; assay: Cytotoxicity against human EKVX cells assessed as cell viability at 10 uM incubated for 48 hrs by sulforhodamine B assay relative to control
# [24] = system: HOP-62; assay: Cytotoxicity against human HOP-62 cells assessed as cell viability at 10 uM incubated for 48 hrs by sulforhodamine B assay relative to control
# [25] = system: HOP-92; assay: Cytotoxicity against human HOP-92 cells assessed as cell viability at 10 uM incubated for 48 hrs by sulforhodamine B assay relative to control
# [26] = system: NCI-H226; assay: Cytotoxicity against human NCI-H226 cells assessed as cell viability at 10 uM incubated for 48 hrs by sulforhodamine B assay relative to control
# [27] = system: NCI-H23; assay: Cytotoxicity against human NCI-H23 cells assessed as cell viability at 10 uM incubated for 48 hrs by sulforhodamine B assay relative to control
# [28] = system: NCI-H322M; assay: Cytotoxicity against human NCI-H322M cells assessed as cell viability at 10 uM incubated for 48 hrs by sulforhodamine B assay relative to control
# [29] = system: NCI-H460; assay: Cytotoxicity against human NCI-H460 cells assessed as cell viability at 10 uM incubated for 48 hrs by sulforhodamine B assay relative to control
# [30] = system: NCI-H522; assay: Cytotoxicity against human NCI-H522 cells assessed as cell viability at 10 uM incubated for 48 hrs by sulforhodamine B assay relative to control
# [31] = system: COLO 205; assay: Cytotoxicity against human COLO 205 cells assessed as cell viability at 10 uM incubated for 48 hrs by sulforhodamine B assay relative to control
# [32] = system: HCC 2998; assay: Cytotoxicity against human HCC 2998 cells assessed as cell viability at 10 uM incubated for 48 hrs by sulforhodamine B assay relative to control
# [33] = system: HCT-116; assay: Cytotoxicity against human HCT-116 cells assessed as cell viability at 10 uM incubated for 48 hrs by sulforhodamine B assay relative to control
# [34] = system: HCT-15; assay: Cytotoxicity against human HCT-15 cells assessed as cell viability at 10 uM incubated for 48 hrs by sulforhodamine B assay relative to control
# [35] = system: HCT-29; assay: Cytotoxicity against human […] cells assessed as cell viability at 10 uM incubated for 48 hrs by sulforhodamine B assay relative to control
# [36] = system: KM12; assay: Cytotoxicity against human KM12 cells assessed as cell viability at 10 uM incubated for 48 hrs by sulforhodamine B assay relative to control
# [37] = system: SW-620; assay: Cytotoxicity against human SW-620 cells assessed as cell viability at 10 uM incubated for 48 hrs by sulforhodamine B assay relative to control
# [38] = system: SF-268; assay: Cytotoxicity against human SF-268 cells assessed as cell viability at 10 uM incubated for 48 hrs by sulforhodamine B assay relative to control
# [39] = system: SNB-19; assay: Cytotoxicity against human SNB-19 cells assessed as cell viability at 10 uM incubated for 48 hrs by sulforhodamine B assay relative to control
# [40] = system: SNB-75; assay: Cytotoxicity against human SNB-75 cells assessed as cell viability at 10 uM incubated for 48 hrs by sulforhodamine B assay relative to control
# [41] = system: LOX IMVI; assay: Cytotoxicity against human LOX IMVI cells assessed as cell viability at 10 uM incubated for 48 hrs by sulforhodamine B assay relative to control
structure (smiles),measurement,setting,value
O=S(=O)(NCCCNc1nccc(-c2c(-c3cccc(F)c3)nc3sccn23)n1)c1ccc(O)cc1,viability at 10 µM,[1],60.4%
same,viability at 10 µM,[2],48.8%
same,viability at 10 µM,[3],83.9%
same,viability at 10 µM,[4],32.2%
same,viability at 10 µM,[5],77.4%
same,viability at 10 µM,[6],31.3%
same,viability at 10 µM,[7],58.7%
same,viability at 10 µM,[8],51.9%
same,viability at 10 µM,[9],43.7%
same,viability at 10 µM,[10],86.4%
same,viability at 10 µM,[11],32.6%
same,viability at 10 µM,[12],60.1%
same,viability at 10 µM,[13],104%
same,viability at 10 µM,[14],57%
same,viability at 10 µM,[15],95.9%
same,viability at 10 µM,[16],81.3%
same,viability at 10 µM,[17],67.6%
same,viability at 10 µM,[18],55.1%
same,viability at 10 µM,[19],55.5%
same,viability at 10 µM,[20],73.6%
same,viability at 10 µM,[21],52.6%
same,viability at 10 µM,[22],47.1%
same,viability at 10 µM,[23],78.8%
same,viability at 10 µM,[24],89%
same,viability at 10 µM,[25],98.1%
same,viability at 10 µM,[26],64.3%
same,viability at 10 µM,[27],87.6%
same,viability at 10 µM,[28],79.2%
same,viability at 10 µM,[29],52.9%
same,viability at 10 µM,[30],85%
same,viability at 10 µM,[31],48.4%
same,viability at 10 µM,[32],100%
same,viability at 10 µM,[33],60%
same,viability at 10 µM,[34],43.5%
same,viability at 10 µM,[35],41.8%
same,viability at 10 µM,[36],27.4%
same,viability at 10 µM,[37],82.7%
same,viability at 10 µM,[38],62.8%
same,viability at 10 µM,[39],77.7%
same,viability at 10 µM,[40],77.8%
same,viability at 10 µM,[41],61.2%
